Laboratory results from patent US5464617A, “β-lactam compounds” (Hoffmann-La Roche Inc., priority 1994, dated 1995).
Converted amounts (≈) assume the structure as drawn. Where a name gives a salt, the structure may show the parent alone.

Experiments:
[1] = system: E. coli 1346; test: Antibacterial activity of the products per se, serial dilution method in liquid medium (Test E); assay type: cell-based; details: product per se; for MIC E. coli 1346 (E): test E; for MIC E. coli 1346: Table 3, liquid medium
Source text: The antibacterial activity of the products per se is illustrated on the basis of Table 3 hereinafter, the minimum inhibitory concentration […] in vitro against E. coli 1346 being determined using the serial dilution method in liquid medium: […]

[2] = system: Citrobacter freundii 1982; test: MIC in vitro of a 1:4 combination of ceftriaxone with a compound of formula I (Test D); assay type: cell-based; details: for MIC C. freundii 1982 (D): test D; for MIC C. freundii 1982: Table 2
Experimental: The minimum inhibitory concentration in vitro ([…]) of a 1:4 combination of ceftriaxone with a compound of formula I against Citrobacter freundii 1982 was measured and compiled in Table 2 hereinafter.

[3] = Table 5, particularly preferred products
[4] = Table 5, particularly preferred products, 1:4 combination with ceftriaxone
[5] = Table 4, 1:4 combination of ceftriaxone with the compound
[6] = 1:4 combination of ceftriaxone with the compound

SMILES	MIC E. coli 1346 (E) ([1]; Table 4) [µg/mL]	MIC C. freundii 1982 (D) [2, 5] [µg/mL]	also measured
O=C(O)C1=C(CSc2ccncc2)C[C@@H]2CN(C(=O)C(F)(F)F)[C@@H]3C(=O)N1[C@H]23 [19(g), (1aS,3aR,6bR)-1-Oxo-5-(pyridin-4-ylsulphanylmethyl)-2-trifluoroacetyl-1a,2,3,3a,4,6b-hexahydro-1H-2,6a-diazacyclobut[cd]indene-6-carboxylic acid sodium salt]	–	–	MIC E. coli 1346 (E) [1, 3]: 1 µg/mL; MIC C. freundii 1982 (D) [2, 4]: 1 µg/mL
CC(=O)N1C[C@H]2OC(CSc3nnc(N)s3)=C(C(=O)O)N3C(=O)[C@@H]1[C@@H]23 [Example 33, (1aS,3aR,6bS)-2-Acetyl-5-(5-amino-1,3,4-thiadiazol-2-ylsulphanylmethyl)-1-oxo-1,1a,2,3,3a,6b-hexahydro-4-oxa-2,6a-diazacyclobut[cd]indene-6-carboxylicacid sodium salt]	2	2	–
O=C([O-])Cc1ccc[n+](CC2=C(C(=O)O)N3C(=O)[C@@H]4[C@H]3[C@H](C2)CN4C(=O)Nc2ccc(O)cc2)c1 [57(b), (1aS,3aR,6bR)-[1-[6-Carboxy-2-(4-hydroxy-phenylcarbamoyl)-1-oxo-1a,2,3,3a,4,6b-hexahydro-1H-2,6a-diazacyclobut[cd]inden-5-ylmethyl]-pyridin-3-ylio]-acetate]	> 32	0.25	–
NC(=O)c1ccc(NC(=O)N2C[C@H]3CC(CSc4ccncc4)=C(C(=O)O)N4C(=O)[C@@H]2[C@@H]34)cc1 [18(e), (1aS,3aR,6bR)-2-(4-Carbamoyl-phenylcarbamoyl)-1-oxo-5-(pyridin-4-ylsulphanylmethyl)-1a,2,3,3a,4,6b-hexahydro-1H-2,6a-diazacyclobut[cd]indene-6-carboxylic acid]	–	–	MIC E. coli 1346 (E) [1, 3]: > 32 µg/mL; MIC C. freundii 1982 (D) [2, 4]: 0.12 µg/mL
CC(=O)OCC1=C(C(=O)O)N2C(=O)[C@@H]3[C@H]2[C@H](C1)CN3C(C)=O [25(c), (1aS,3aR,6bR)-5-Acetoxymethyl-2-acetyl-1-oxo-1a,2,3,3a,4,6b-hexahydro-1H-2,6a-diazacyclobut[cd]indene-6-carboxylic acid sodium salt]	4	1	–
NC(=O)OCC1=C(C(=O)O)N2C(=O)[C@@H]3[C@H]2[C@H](C1)CN3C(=O)Nc1ccc(C(N)=O)cc1 [27(b), (1aS,3aR,6bR)-5-Carbamoyloxymethyl-2-(4-carbamoylphenylcarbamoyl)-1-oxo-1a,2,3,3a,4,6b-hexahydro-1H-2,6a-diazacyclobut[cd]indene-6-carboxylic acid sodium salt]	–	–	MIC E. coli 1346 (E) [1, 3]: > 32 µg/mL; MIC C. freundii 1982 (D) [2, 4]: ≤ 0.06 µg/mL
Cn1nc(O)c(=O)nc1SCC1=C(C(=O)O)N2C(=O)[C@H]3NC[C@@H](C1)[C@H]32 [Example 53, (1aS,3aR,6bR)-5-(2,5-Dihydro-6-hydroxy-2-methyl-5-oxo-1,2,4-triazin-3-ylsulphanylmethyl)-1-oxo-1a,2,3,3a,4,6 b-hexahydro-1H-2,6a-diazacyclobut[cd]indene-6-carboxylic acid trifluoroacetate]	2	4	–
N[C@@H](C(=O)N1C[C@H]2CC(COC(=O)NCc3ccncc3)=C(C(=O)O)N3C(=O)[C@@H]1[C@@H]23)c1ccccc1 [100(d), (1aS,3aR,6bR)-2-[(R)-2-phenyl-glycyl]-1-oxo-5-(pyridin-4-ylmethylcarbamoyloxymethyl)-1a,2,3,3a,4,6b-hexahydro-1H-2,6a-diazacyclobut[cd]indene-6-carboxylic acid hydrochloride]	0.5	2	–
O=C(O)C1=C(CSc2ccncc2)S[C@@H]2CN[C@@H]3C(=O)N1[C@@H]32 [40(f), (1aS,3aR,6bS)-1-Oxo-5-(pyridin-4-ylsulphanylmethyl)-4-thia-1,1a,2,3,3a,6b-hexahydro-2,6a-diazacyclobut[cd]indene-6-carboxylic acid]	32 (≈ 95.4 µM)	2	–
CC(=O)N1C[C@H]2CC(COC(N)=O)=C(C(=O)O)N3C(=O)[C@@H]1[C@@H]23 [58(a), (1aS,3aR,6bR)-2-Acetyl-5-carbamoyloxymethyl-1-oxo-1a,2,3,3a,4,6b-hexahydro-1H-2,6a-diazacyclobut[cd]indene-6-carboxylic acid sodium salt]	> 32	2	–
Cn1nnnc1SC1=C(C(=O)O)N2C(=O)[C@@H]3[C@H]2[C@H](C1)CN3C(=O)C(F)(F)F [Example 3(ab), (1aS,3aR,6bR)-5-(1-Methyl-1H-tetrazol-5-ylsulphanyl)-1-oxo-2-trifluoroacetyl-1a,2,3,3a,4,6b-hexahydro-1H-2,6a-diazacyclobut[cd]indene-6-carboxylic acid sodium salt]	32	16	–
NC(=O)CN1C[C@H]2CC(COC(N)=O)=C(C(=O)O)N3C(=O)[C@@H]1[C@@H]23 [59(d), (1aS,3aR,6bR)-2-Carbamoylmethyl-5-carbamoyloxymethyl-1-oxo-1a,2,3,3a,4,6b-hexahydro-1H-2,6a-diazacyclobut[cd]indene-6-carboxylic acid sodium salt]	8	1	–
Cn1nc(O)c(=O)nc1SCC1=C(C(=O)O)N2C(=O)[C@@H]3[C@H]2[C@H](C1)CN3C(=O)Nc1ccc(O)cc1 [Example 54, (1aS,3aR,6bR)-5-(2,5-Dihydro-6-hydroxy-2-methyl-5-oxo-1,2,4-triazin-3-ylsulphanylmethyl)-2-(4-hydroxy-phenylcarbamoyl)-1-oxo-1a,2,3,3a,4,6b-hexahydro-1H-2,6a-diazacydobut[cd]indene-6-carboxylic acid sodium salt (1:2)]	32	0.25	–
CC(=O)N1C[C@H]2CC(CSc3nnc(N)s3)=C(C(=O)O)N3C(=O)[C@@H]1[C@@H]23 [19(i), (1aS,3aR,6bR)-2-Acetyl-5-(5-amino-1,3,4-thiadiazol-2-ylsulphanylmethyl)-1-oxo-1a,2,3,3a,4,6b-hexahydro-1H-2,6a-diazacyclobut[cd]indene-6-carboxylic acid sodium salt]	0.5	1	–
Cc1nnc(SCC2=C(C(=O)O)N3C(=O)[C@@H]4[C@H]3[C@@H](CN4C(=O)Nc3ccc(O)cc3)S2)s1 [41(c), (1aS,3aR,6bS)-2-(4-Hydroxy-phenylcarbamoyl)-5-(5-methyl-1,3,4-thiadiazol-2-ylsulphanylmethyl)-1-oxo-4-thia-1,1a,2,3,3a,6b-hexahydro-2,6a-diazacyclobut[cd]indene-6-carboxylic acid sodium salt]	> 32	1	–
CNC(=O)OCC1=C(C(=O)O)N2C(=O)[C@H]3NC[C@@H](C1)[C@H]32 [Example 97, (1aS,3aR,6bR)-5-Methylcarbamoyloxymethyl-1-oxo-1a,2,3,3a,4,6b-hexahydro-1H-2,6a-diazacyclobut[cd]indene-6-carboxylic acid trifluoroacetate]	4	1	–
O=C(O)C1=C(CSc2ccnc3c2CCC3)S[C@@H]2CN(C(=O)Nc3ccc(O)cc3)[C@@H]3C(=O)N1[C@@H]32 [41(a), (1aS,3aR,6bS)-2-(4-Hydroxy-phenylcarbamoyl)-5-(6,7-dihydro-5H-1-pyrindin-4-ylsulphanylmethyl)-1-oxo-4-thia-1,1a,2,3,3a,6b-hexahydro-2,6a-diazacyclobut[cd]indene-6-carboxylic acid sodium salt]	> 32	2	–
CNC(=O)Cn1nnnc1SCC1=C(C(=O)O)N2C(=O)[C@@H]3[C@H]2[C@H](C1)CN3C(=O)C(F)(F)F [74(b), (1aS,3aR,6bR)-5-(1-Methylcarbamoylmethyl-1H-tetrazol-1-ylsulphanylmethyl)-1-oxo-2-trifluoroacetyl-1a,2,3,3a,4,6b-hexahydro-1H-2,6a-diazacyclobut[cd]indene-6-carboxylic acid sodium salt]	1	1	–
CS(=O)(=O)OC1=C(C(=O)O)N2C(=O)[C@@H]3[C@H]2[C@H](C1)CN3C(=O)NCc1ccc(O)c(O)c1 [9(d), (1aS,3aR,6bR)-2-(3,4-Dihydroxy-benzylcarbamoyl)-5-methylsulphonyloxy-1-oxo-1a,2,3,3a,4,6b-hexahydro-1H-2,6a-diazacyclobut[cd]indene-6-carboxylic acid sodium salt]	–	–	MIC E. coli 1346 [1]: 32 µg/mL; MIC C. freundii 1982 [2, 6]: 2 µg/mL
Cn1nnnc1SC1=C(C(=O)O)N2C(=O)[C@@H]3[C@H]2[C@H](C1)CN3C(=O)NCc1ccc(O)c(O)c1 [3(e), (1aS,3aR,6bR)-2-(3,4-Dihydroxy-benzylcarbamoyl)-5-(1-methyl-1H-tetrazol-5-ylsulphanyl)-1-oxo-1a,2,3,3a,4,6b-hexahydro-1H-2,6a-diazacyclobut[cd]indene-6-carboxylic acid salt]	–	–	MIC E. coli 1346 [1]: 32 µg/mL; MIC C. freundii 1982 [2, 6]: 2 µg/mL
